Measurements from patent US8314268B2, “1-phenylalkanecarboxylic acid derivatives for the treatment of neurodegenerative diseases” (Chiesi Farmaceutici S.p.A., priority 2003, dated 2012).
Like-named read-outs stand apart in the source and are kept apart here.

Tests used:
[1] = test system: Aβ42 release in H4-15× cells; test: Inhibition of Aβ42 release in the supernatant of H4-15× cells; type: cell-based, human; settings: for inhibition at 100 µM: Homo sapiens, H415, overnight (14-16 hours) incubation; for % inhibition of Aβ42 release: 100 μM, overnight (14-16 hours) incubation
Method: H4-15× cells (human neuroglioma cells transfected with the human gene encoding for the precursor of β-amyloid protein APP695) were cultured in flasks (in incubator at 37° C., under aqueous vapour saturated atmosphere with 5% carbon dioxide), in the presence of hygromycin and blasticidin, which maintain the selective pressure for the cells continuously expressing the gene of interest.
When the cells reached about 90% confluency, they were collected and re-seeded in 24 wells plates (2×10^5 cells each), in 0.5 ml of complete culture medium. After approx. 24 hours, when the cells had adhered to the well surface and reached confluency, the medium of each well was replaced with 0.5 ml of fresh culture medium, supplemented with a compound (I) to 100 micromolar final concentration. Each tested concentration was repeated in triplicate. The molecules used for the treatment were previously dissolved in dimethylsulfoxide (DMSO) or in a dimethylsulfoxide/water mixture, the final concentration of DMSO in the wells not exceeding 1%. Thus the prepared plates were incubated again overnight (14-16 hours); afterwards the cell supernatant was taken from each well and Aβ42 and Aβ40 proteins were quantitated. The assay was carried out with an instrumentation for microplates chemoluminescence analysis, which allows to separately quantify the two proteins and is based on the immobilization of an analyte-antibody complex on paramagnetic microbeads. One of the antibodies of this complex is marked with a ruthenium compound which, upon electrochemical excitement, gives a light signal, having intensity proportional to the amount of analyte present.

cyclooxygenase-1 (COX-1) = target: T1, cyclooxygenase-1 (COX-1) (Rattus norvegicus, UniProt Q63921); test: Inhibition of cyclooxygenase-1 (COX-1) in rat whole blood (TxB2 production); type: cell-based; settings: for inhibition at 100 µM: read-out: % COX-1 inhibitory activity
T1 construct: Aliquots of heparinized blood (500 μl) were preincubated with 100 μM concentration of the tested compounds; from tissue; host or cells: rat whole blood (heparinized, from the abdominal aorta)
T1 sequence (Q63921 27-602): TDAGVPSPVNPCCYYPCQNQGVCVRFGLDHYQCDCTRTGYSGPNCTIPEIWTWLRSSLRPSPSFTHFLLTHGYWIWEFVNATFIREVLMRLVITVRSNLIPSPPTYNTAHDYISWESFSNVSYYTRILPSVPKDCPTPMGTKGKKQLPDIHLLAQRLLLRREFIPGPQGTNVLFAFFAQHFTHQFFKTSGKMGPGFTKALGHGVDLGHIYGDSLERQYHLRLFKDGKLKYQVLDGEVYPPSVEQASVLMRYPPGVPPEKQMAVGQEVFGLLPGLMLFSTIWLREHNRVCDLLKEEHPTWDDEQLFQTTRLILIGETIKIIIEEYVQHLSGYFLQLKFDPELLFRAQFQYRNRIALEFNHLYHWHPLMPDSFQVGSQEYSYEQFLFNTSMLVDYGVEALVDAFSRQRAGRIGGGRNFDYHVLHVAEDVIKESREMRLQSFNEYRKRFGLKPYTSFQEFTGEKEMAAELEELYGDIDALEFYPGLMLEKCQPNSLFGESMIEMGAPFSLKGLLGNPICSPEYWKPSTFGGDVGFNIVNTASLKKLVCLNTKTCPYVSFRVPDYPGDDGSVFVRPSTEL
Method: Whole blood was taken from the rat abdominal aorta and immediately placed in heparinized tubes. Aliquots of heparinized blood (500 μl) were preincubated with 100 μM concentration of the tested compounds or with the only carrier (DMSO) for 1 h at 37° C. Eicosanoid production was induced by addition of calcium ionophore A23187 (final concentration 5×10^−5 M) and was interrupted after 30 minute incubation by quickly placing the samples in dry ice. Thereafter, samples were centrifuged (12000 g×3 minutes a 4° C.) and the production of TxB2 thromboxane B2 was calculated by radioimmunoassay.

[2] = 100 μM, rat whole blood, calcium ionophore A23187-induced TxB2 production

| inhibition at 100 µM (cyclooxygenase-1 (COX-1); [2]) | % COX-1 inhibitory activity (cyclooxygenase-1 (COX-1); [2]) | SMILES | inhibition at 100 µM [1] | % inhibition of Aβ42 release [1] | inhibition at 100 µM (cyclooxygenase-1 (COX-1)) |
| --- | --- | --- | --- | --- | --- |
| – | – | CC(C)(C(=O)O)c1ccc(-c2ccc(C(F)(F)F)cc2)c(F)c1 [CHF 4810, 2-methyl-2(2-fluoro-4′-trifluoromethylbiphen-4-yl)propionic acid] | 58% | – | – |
| 5.2% | – | CC(C)(C(=O)O)c1ccc(-c2ccc(C3CCCCC3)cc2)c(F)c1 [CHF 4961, 2-methyl-2(2-fluoro-4′cyclohexylbiphen-4-yl)propionic acid] | 76.6% | – | – |
| 0% | – | O=C(O)C1(c2ccc(-c3ccc(C(F)(F)F)cc3)c(F)c2)CC1 [CHF 5022, 1-(2-fluoro-4′-trifluoromethylbiphenyl-4-yl)cyclopropanecarboxylic acid] | 55.4% | – | – |
| 8.3% | – | O=C(O)C1(c2ccc(-c3cccc(OC(F)(F)F)c3)c(F)c2)CC1 [CHF 5045, 1-(2-fluoro-3′-trifluoromethoxybiphenyl-4-yl)cyclopropanecarboxylic acid] | 56.4% | – | – |
| 2.6% | – | O=C(O)C1(c2ccc(-c3ccc(OC(F)(F)F)cc3)c(F)c2)CC1 [CHF 5046, 1-(2-fluoro-4′-trifluoromethoxybiphenyl-4-yl)cyclopropanecarboxylic acid] | 70.4% | – | – |
| 0% | – | O=C(O)C1(c2ccc(-c3cccc(C(F)(F)F)c3)c(F)c2)CC1 [CHF 5058, 1-(2-fluoro-3′-trifluoromethylbiphenyl-4-yl)cyclopropanecarboxylic acid] | 54.8% | – | – |
| 0% | – | O=C(O)C1(c2ccc(-c3ccc(O)cc3)c(F)c2)CC1 [CHF 5070, 1-(2-fluoro-4′-hydroxybiphenyl-4-yl)cyclopropanecarboxylic acid] | 22.4% | – | – |
| 0.4% | – | O=C(O)C1(c2ccc(-c3ccc(OC4CCOCC4)cc3)c(F)c2)CC1 [CHF 5071, 1-[2-fluoro-4′-(tetrahydropyran-4-yloxy)biphenyl-4-yl]-cyclopropane-carboxylic acid] | 28.1% | – | – |
| 4.8% | – | O=C(O)C1(c2ccc(-c3ccc(F)c(F)c3)c(F)c2)CC1 [CHF 5073, 1-(2,3′,4′-trifluorobiphenyl-4-yl)cyclopropanecarboxylic acid] | 67.4% | – | – |
| 0.5% | – | O=C(O)C1(c2ccc(-c3ccc(Cl)c(Cl)c3)c(F)c2)CC1 [CHF 5074, 1-(3′,4′-dichloro-2-fluorobiphenyl-4-yl)cyclopropanecarboxylic acid] | 79.2% | – | – |
| 5.5% | – | O=C(O)C1(c2ccc(-c3ccc(F)c(Cl)c3)c(F)c2)CC1 [CHF 5076, 1-(3′-chloro-2,4′-difluorobiphenyl-4-yl)cyclopropanecarboxylic acid] | 71.4% | – | – |
| 0.3% | – | O=C(O)C1(c2ccc(-c3ccc(C4CCOCC4)cc3)c(F)c2)CC1 [CHF 5080, 1-[2-fluoro-4′-(tetrahydropyran-4-yl)-biphenyl-4-yl]-cyclopropanecarboxylic acid] | 51.8% | – | – |
| 6.1% | – | O=C1CCC(c2ccc(-c3ccc(C4(C(=O)O)CC4)cc3F)cc2)CC1 [CHF 5081, 1-[2-fluoro-4′-(4-oxo-cyclohexyl)-biphenyl-4-yl]-cyclopropanecarboxylic acid] | 52.3% | – | – |
| – | – | O=C(O)C1CC1c1ccc(-c2ccc(-c3ccc(O)cc3)cc2)c(F)c1 (centres unmarked) [CHF 5083, 2-(2″-fluoro-4-hydroxy-[1,1′:4′,1″]tert-phenyl-4″-yl)-cyclopropanecarboxylic acid] | – | 81.1% | – |
| 0.8% | – | O=C(O)C1(c2ccc(-c3ccc(OC4CCC(C(F)(F)F)CC4)cc3)c(F)c2)CC1 (centres unmarked) [CHF 5096, 1-[2-fluoro-4′-[[4-(trifluoromethyl)cyclohexyl]oxy][1,1′-biphenyl]-4-yl]-cyclopropanecarboxylic acid] | 70% | – | – |
| – | 1.9% | O=C(O)C1(c2ccc(-c3ccc(-c4ccc(F)cc4)cc3F)c(F)c2)CC1 [CHF 5105, 1-(2,2′,4″-trifluoro[1,1′:4′,1″-tert-phenyl]-4-yl)-cyclopropanecarboxylic acid] | – | 90.7% | – |
| – | 0.0% | O=C(O)C1(c2ccc(-c3ccc(-c4ccc(O)cc4)c(F)c3)c(F)c2)CC1 [CHF 5106, 1-(2,3′-difluoro-4″-hydroxy[1,1′:4′,1″-tert-phenyl]-4-yl)-cyclopropane-carboxylic acid] | – | 79.9% | – |
| – | 1.1% | O=C(O)C1(c2ccc(-c3ccc(-c4ccc(O)cc4)cc3F)c(F)c2)CC1 [CHF 5107, 1-(2,2′-difluoro-4″-hydroxy[1,1′:4′,1″-tert-phenyl]-4-yl)-cyclopropane-carboxylic acid] | – | 83.3% | – |
| – | – | CC(C(=O)O)c1ccc(-c2ccccc2)c(F)c1 (centres unmarked) [Flurbiprofen, reference compound] | ~25% | – | 100% |

| SMILES | inhibition at 100 µM (cyclooxygenase-1 (COX-1); [2]) | % COX-1 inhibitory activity (cyclooxygenase-1 (COX-1); [2]) | inhibition at 100 µM [1] | % inhibition of Aβ42 release [1] | inhibition at 100 µM (cyclooxygenase-1 (COX-1)) |
| --- | --- | --- | --- | --- | --- |
| C#CCOc1ccc(-c2ccc(C3(C(=O)O)CC3)cc2F)cc1 [CHF 5078, 1-(2-fluoro-4′-prop-2-inyloxy-biphenyl-4-yl)-cyclopropanecarboxylic acid] | – | 3.6% | – | 57.5% | – |
